In paper PMC4664966, “Discovery and characterization of novel inhibitors of the sodium-coupled citrate transporter (NaCT or SLC13A5)” (Scientific Reports, 2015):
“Also recorded” adds a separate entry of the source.

Legend:
[1] = molecular target: Cholecystokinin receptor B (CCKBR) (Homo sapiens, UniProt P32239); experiment: Selectivity data (Table S1); type: binding
[2] = molecular target: Acetylcholinesterase (ACHE) (Homo sapiens, UniProt P22303); experiment: Selectivity data (Table S1); type: biochemical
Chain of Acetylcholinesterase (ACHE) (P22303 32-614): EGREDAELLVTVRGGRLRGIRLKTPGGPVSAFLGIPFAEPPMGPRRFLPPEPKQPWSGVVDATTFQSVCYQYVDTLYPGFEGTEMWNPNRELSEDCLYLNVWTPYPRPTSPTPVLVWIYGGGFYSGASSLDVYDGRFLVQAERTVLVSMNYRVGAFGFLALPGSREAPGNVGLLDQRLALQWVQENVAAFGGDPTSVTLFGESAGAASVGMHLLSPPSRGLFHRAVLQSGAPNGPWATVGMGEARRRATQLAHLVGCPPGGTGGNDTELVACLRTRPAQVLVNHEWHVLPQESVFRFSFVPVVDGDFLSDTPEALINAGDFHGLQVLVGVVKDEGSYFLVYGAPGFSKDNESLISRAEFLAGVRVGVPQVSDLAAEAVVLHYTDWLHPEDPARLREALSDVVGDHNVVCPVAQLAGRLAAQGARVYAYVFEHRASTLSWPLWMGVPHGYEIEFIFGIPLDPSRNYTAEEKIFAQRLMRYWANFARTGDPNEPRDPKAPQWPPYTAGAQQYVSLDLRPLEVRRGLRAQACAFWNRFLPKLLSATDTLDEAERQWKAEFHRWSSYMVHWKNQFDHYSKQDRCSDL

[3] = molecular target: Monoacylglycerol acyltransferase 3 (MGAT3) (Homo sapiens, UniProt Q86VF5); experiment: Selectivity data (Table S1); type: biochemical
[4] = molecular target: Adrenergic receptor, alpha-2A (ADRA2A) (Homo sapiens, UniProt P08913); experiment: Selectivity data (Table S1); type: binding
[5] = molecular target: Abelson murine leukemia viral oncogene homolog 1 (ABL1) (Homo sapiens, UniProt P00519); experiment: Selectivity data (Table S1); type: biochemical
[6] = molecular target: Serotonin receptor 2B (5-HT2B) (Homo sapiens, UniProt P41595); experiment: Selectivity data (Table S1); type: binding
[7] = Passive permeability, MDCK-LE cell monolayer; type: in vitro ADME; conditions: dog; MDCK-LE cell monolayer; read-out: Papp (apparent passive permeability)
Protocol: Passive permeability was assessed using MDCK-LE cell monolayer as described previously in Di et al., (2011)[44].

[8] = molecular target: Cytochrome P450 2D6 (CYP2D6) (Homo sapiens, UniProt P10635); experiment: Selectivity data (Table S1); type: in vitro ADME
CYP2D6 = CYP2D6 (Homo sapiens, UniProt P10635); experiment: Selectivity data (Table S1); type: in vitro ADME; conditions: 3 µM
[9] = molecular target: Noradrenaline transporter, sodium-dependent (NAT) (Homo sapiens, UniProt P23975); experiment: Selectivity data (Table S1)
[10] = molecular target: Monoacylglycerol acyltransferase 1 (MGAT1) (Homo sapiens, UniProt Q96PD6); experiment: Selectivity data (Table S1); type: biochemical
Chain of Monoacylglycerol acyltransferase 1 (MGAT1) (Q96PD6 whole entry): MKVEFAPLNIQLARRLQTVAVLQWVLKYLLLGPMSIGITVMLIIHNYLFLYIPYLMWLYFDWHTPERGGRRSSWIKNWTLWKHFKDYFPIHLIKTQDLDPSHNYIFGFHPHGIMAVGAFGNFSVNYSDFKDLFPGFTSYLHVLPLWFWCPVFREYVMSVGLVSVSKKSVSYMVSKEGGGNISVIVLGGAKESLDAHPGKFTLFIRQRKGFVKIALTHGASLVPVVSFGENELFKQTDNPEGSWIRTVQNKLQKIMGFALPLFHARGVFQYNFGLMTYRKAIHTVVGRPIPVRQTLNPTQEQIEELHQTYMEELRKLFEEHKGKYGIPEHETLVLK

[11] = molecular target: Glucocorticoid receptor (GR) (Homo sapiens, UniProt P04150); experiment: Selectivity data (Table S1); type: binding
[12] = molecular target: Serotonin transporter, sodium-dependent (5-HTT) (Homo sapiens, UniProt P31645); experiment: Selectivity data (Table S1)
[13] = Steady state intravenous infusion in rat, tissue distribution
Plasma fraction unbound = type: in vitro ADME; conditions: mouse, read-out: mouse plasma fu
CYP3A4 = CYP3A4 (Homo sapiens, UniProt P08684); experiment: Selectivity data (Table S1); type: in vitro ADME; conditions: 3 µM
Chain of CYP3A4 (P08684 whole entry): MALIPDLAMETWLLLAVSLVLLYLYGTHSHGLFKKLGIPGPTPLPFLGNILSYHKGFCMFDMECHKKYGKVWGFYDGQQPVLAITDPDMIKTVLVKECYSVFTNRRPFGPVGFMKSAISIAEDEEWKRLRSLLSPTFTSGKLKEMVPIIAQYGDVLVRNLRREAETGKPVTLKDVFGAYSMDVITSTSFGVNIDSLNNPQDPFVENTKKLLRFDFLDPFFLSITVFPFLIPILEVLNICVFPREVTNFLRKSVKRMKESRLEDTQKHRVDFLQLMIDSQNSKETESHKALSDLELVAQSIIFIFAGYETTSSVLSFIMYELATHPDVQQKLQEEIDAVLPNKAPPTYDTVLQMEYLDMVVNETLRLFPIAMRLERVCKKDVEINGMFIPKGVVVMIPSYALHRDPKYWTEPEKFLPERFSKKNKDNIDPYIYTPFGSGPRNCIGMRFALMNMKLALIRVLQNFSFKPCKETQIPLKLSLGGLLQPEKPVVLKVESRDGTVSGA

[14] = molecular target: Cytochrome P450 3A4 (CYP3A4) (Homo sapiens, UniProt P08684); experiment: Selectivity data (Table S1); type: in vitro ADME
Chain of Cytochrome P450 3A4 (CYP3A4) (P08684 whole entry): as above

[15] = molecular target: Monoacylglycerol acyltransferase 2 (MGAT2) (Homo sapiens, UniProt Q3SYC2); experiment: Selectivity data (Table S1); type: biochemical
Chain of Monoacylglycerol acyltransferase 2 (MGAT2) (Q3SYC2 whole entry): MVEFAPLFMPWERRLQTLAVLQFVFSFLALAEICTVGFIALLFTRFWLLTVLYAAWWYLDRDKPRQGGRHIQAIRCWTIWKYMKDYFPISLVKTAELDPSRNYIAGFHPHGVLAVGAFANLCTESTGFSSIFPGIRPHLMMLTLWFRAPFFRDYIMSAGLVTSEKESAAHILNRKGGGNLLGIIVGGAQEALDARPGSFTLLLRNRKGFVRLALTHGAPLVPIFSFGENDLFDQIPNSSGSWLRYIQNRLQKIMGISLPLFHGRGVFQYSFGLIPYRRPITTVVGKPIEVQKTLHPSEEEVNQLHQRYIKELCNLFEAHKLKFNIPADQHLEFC

pKa = type: physicochemical
[16] = molecular target: Diacylglycerol acyltransferase 2 (DGAT2) (Homo sapiens, UniProt Q96PD7); experiment: Selectivity data (Table S1); type: biochemical
Chain of Diacylglycerol acyltransferase 2 (DGAT2) (Q96PD7 whole entry, species assumed): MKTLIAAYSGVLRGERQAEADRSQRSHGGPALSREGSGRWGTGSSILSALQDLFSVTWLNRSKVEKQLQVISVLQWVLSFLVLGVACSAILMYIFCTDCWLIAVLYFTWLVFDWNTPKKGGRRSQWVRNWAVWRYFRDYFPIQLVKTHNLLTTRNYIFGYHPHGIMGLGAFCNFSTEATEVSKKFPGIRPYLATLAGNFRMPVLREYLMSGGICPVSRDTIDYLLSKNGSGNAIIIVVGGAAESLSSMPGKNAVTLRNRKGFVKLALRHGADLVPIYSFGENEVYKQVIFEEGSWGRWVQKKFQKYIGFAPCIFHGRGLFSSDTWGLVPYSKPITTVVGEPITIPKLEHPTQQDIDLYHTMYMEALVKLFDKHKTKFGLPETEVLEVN

[17] = molecular target: Phosphodiesterase 4D3 (PDE4D3) (Homo sapiens, UniProt Q08499); experiment: Selectivity data (Table S1); type: biochemical
Chain of Phosphodiesterase 4D3 (PDE4D3) (Q08499 1-673 isoform Q08499-2): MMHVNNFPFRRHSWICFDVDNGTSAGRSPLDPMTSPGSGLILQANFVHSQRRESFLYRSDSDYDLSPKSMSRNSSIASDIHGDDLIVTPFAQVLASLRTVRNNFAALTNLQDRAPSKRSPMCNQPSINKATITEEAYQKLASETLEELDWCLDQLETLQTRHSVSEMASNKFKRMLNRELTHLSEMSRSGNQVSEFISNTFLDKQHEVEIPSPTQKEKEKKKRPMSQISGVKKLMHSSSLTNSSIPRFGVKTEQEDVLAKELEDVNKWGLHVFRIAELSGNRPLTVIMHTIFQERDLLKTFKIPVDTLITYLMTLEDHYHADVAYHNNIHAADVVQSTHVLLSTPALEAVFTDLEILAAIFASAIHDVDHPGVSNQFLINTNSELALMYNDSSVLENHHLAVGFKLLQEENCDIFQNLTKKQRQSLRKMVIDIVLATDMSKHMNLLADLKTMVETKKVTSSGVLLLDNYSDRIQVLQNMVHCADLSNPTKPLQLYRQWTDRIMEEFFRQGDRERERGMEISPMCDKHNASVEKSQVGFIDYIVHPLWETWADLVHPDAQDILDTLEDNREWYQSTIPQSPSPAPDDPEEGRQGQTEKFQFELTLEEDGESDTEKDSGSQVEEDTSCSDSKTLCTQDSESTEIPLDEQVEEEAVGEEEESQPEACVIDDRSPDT

Dopamine receptor 2 (D2) = Dopamine receptor 2 (D2) (Homo sapiens, UniProt P14416); experiment: Selectivity data (Table S1); type: binding
[18] = Intra-/extracellular unbound concentration ratio (Kpuu) in human hepatocytes; type: in vitro ADME; conditions: cryopreserved hepatocytes, ratio of free intracellular and media concentration after 1 h incubation at 1 μM, geometric mean of 3 replicates ± SD
Protocol: kpuu values were determined by measuring total cell and media concentrations corrected for their respective fraction unbound. Detailed methods to determine intra- and extracellular concentrations of compound in the HEKNaCT cells and human hepatocytes will be the subject of a separate manuscript that is under preparation. […]
Intra- and extracellular concentrations of compound in cellular assays. kpuu values were determined by measuring total cell and media concentrations corrected for their respective […]
fraction unbound. […]
The solution was heated to reflux until the total volume was reduced to ~25 mL.
Hexane (25 mL) was added and the mixture was brought back to reflux than allowed to slowly cool to room temperature. After standing at room temperature for 16 h, the resulting suspension was filtered and dried under high vacuum to yield (S)-2-(4-(tert-butyl)phenethyl)-2-hydroxysuccinic acid (3) as a white solid. The filtrate was allowed to stand at room temperature for 4 days. The solvent evaporated to ~15 mL and large, colorless crystals formed.
X-ray analysis. Data collection was performed on a Bruker APEX diffractometer at room temperature. Data collection consisted of 3 omega scans and low angle and three at high angle; each with 0.5 step. In addition, 2 phi scans were collected to improve the quality of the […]

Histamine receptor (H3) = Histamine receptor (H3) (Homo sapiens, UniProt Q9Y5N1); experiment: Selectivity data (Table S1); type: binding
[19] = molecular target: Serotonin receptor 2A (5-HT2A) (Homo sapiens, UniProt P28223); experiment: Selectivity data (Table S1); type: binding
Chain of Serotonin receptor 2A (5-HT2A) (P28223 whole entry): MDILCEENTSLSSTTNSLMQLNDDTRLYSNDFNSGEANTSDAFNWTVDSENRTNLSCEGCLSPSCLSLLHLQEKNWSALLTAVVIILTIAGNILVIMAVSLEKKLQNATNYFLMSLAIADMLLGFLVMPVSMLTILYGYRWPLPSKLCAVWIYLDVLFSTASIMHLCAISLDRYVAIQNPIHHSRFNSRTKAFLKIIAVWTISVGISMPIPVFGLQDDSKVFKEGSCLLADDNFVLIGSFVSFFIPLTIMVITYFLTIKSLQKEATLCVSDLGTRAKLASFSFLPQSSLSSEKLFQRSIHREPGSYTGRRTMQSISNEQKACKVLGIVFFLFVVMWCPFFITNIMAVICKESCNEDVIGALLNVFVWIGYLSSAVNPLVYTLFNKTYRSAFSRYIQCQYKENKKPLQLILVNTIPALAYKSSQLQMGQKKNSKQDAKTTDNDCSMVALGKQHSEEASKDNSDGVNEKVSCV

[20] = molecular target: Gamma-aminobutyric acid receptor A, alpha 1 (GABRA1) (Homo sapiens, UniProt P14867+P47870); experiment: Selectivity data (Table S1); type: binding
[21] = molecular target: Potassium voltage-gated channel, KQT-like subfamily, member 1 (KCNQ1) (Homo sapiens, UniProt P51787); experiment: in vitro
Chain of Potassium voltage-gated channel, KQT-like subfamily, member 1 (KCNQ1) (P51787 whole entry): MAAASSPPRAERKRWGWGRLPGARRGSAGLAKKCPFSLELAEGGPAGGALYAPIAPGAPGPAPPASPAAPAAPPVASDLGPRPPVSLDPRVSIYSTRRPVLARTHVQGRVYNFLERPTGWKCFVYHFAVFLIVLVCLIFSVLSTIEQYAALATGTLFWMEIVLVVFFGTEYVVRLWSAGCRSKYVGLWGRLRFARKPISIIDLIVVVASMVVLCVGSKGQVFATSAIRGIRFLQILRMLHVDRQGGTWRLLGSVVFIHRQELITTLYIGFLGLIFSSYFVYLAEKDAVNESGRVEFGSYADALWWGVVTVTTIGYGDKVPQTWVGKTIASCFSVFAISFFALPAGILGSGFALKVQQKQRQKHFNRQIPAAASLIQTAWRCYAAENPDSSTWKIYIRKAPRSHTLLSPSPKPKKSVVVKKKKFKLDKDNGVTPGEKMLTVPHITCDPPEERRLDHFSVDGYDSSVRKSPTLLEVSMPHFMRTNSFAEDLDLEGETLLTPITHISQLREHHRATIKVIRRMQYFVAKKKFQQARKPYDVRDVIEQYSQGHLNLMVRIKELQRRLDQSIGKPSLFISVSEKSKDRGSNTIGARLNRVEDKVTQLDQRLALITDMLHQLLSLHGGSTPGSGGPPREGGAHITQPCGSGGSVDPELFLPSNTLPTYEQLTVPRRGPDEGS

[22] = molecular target: Monoamine oxidase A (MAOA) (Homo sapiens, UniProt P21397); experiment: Selectivity data (Table S1); type: biochemical
Chain of Monoamine oxidase A (MAOA) (P21397 whole entry): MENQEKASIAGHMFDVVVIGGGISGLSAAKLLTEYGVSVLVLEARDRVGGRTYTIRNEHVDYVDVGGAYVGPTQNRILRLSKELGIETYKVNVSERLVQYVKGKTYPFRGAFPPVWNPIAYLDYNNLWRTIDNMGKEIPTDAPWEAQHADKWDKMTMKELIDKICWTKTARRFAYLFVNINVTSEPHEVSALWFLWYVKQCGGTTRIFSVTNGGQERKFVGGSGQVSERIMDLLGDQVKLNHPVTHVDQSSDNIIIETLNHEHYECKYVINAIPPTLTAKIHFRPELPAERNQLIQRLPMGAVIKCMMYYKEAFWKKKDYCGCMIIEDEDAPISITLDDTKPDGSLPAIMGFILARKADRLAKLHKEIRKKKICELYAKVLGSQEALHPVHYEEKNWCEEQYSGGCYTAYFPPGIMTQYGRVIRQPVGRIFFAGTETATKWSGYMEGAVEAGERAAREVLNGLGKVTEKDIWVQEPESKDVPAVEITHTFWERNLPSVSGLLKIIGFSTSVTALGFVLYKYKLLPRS

[23] = molecular target: Muscarinic acetylcholine receptor 3 (M3) (Homo sapiens, UniProt P20309); experiment: Selectivity data (Table S1); type: binding
[24] = molecular target: Cytochrome P450 2C8 (CYP2C8) (Homo sapiens, UniProt P10632); experiment: Selectivity data (Table S1); type: in vitro ADME
CYP2C8 = CYP2C8 (Homo sapiens, UniProt P10632); experiment: Selectivity data (Table S1); type: in vitro ADME; conditions: 3 µM
ATP-citrate lyase = ATP-citrate lyase (Homo sapiens, UniProt P53396); experiment: ATP-citrate lyase interaction/inhibition; type: biochemical
[25] = molecular target: Neurokinin receptor 1 (NK1) (Homo sapiens, UniProt P25103); experiment: Selectivity data (Table S1); type: binding
Chain of Neurokinin receptor 1 (NK1) (P25103 whole entry): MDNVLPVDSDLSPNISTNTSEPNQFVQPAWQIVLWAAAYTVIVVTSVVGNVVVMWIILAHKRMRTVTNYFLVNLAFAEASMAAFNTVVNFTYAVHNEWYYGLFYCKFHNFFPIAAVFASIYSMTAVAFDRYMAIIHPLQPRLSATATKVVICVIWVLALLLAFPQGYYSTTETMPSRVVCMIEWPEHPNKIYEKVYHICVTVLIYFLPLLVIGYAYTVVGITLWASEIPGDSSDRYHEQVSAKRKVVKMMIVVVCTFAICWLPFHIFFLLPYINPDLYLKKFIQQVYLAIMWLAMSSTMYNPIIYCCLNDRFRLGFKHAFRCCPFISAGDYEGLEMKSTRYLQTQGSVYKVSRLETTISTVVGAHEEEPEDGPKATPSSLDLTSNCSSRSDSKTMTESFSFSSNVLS

## CC(C)(C)c1ccc(CC[C@@](O)(CC(=O)O)C(=O)O)cc1 [Compound 2]
[1]
  inhibition at 100 µM: < 10%
[2]
  inhibition at 100 µM: < 10%
[3]
  IC50: > 50 µM
[4]
  inhibition at 100 µM: < 10%
[5]
  inhibition at 100 µM: < 10%
[6]
  inhibition at 100 µM: < 10%
[7]
  Papp: 1.4 ×10⁻⁶ cm/s
[8]
  interaction/inhibition of CYP2D6: no significant interaction/inhibition
CYP2D6
  inhibition at 3 µM: < 10%
[9]
  inhibition at 100 µM: < 10%
[10]
  IC50: > 50 µM
[11]
  inhibition at 100 µM: < 10%
[12]
  inhibition at 100 µM: < 10%
[13]; steady state intravenous infusion
  brain penetration: minimal brain penetration; also recorded: restricted in the brain
[13]; steady state intravenous infusion 0.27mg/kg/hour
  uptake in liver and kidney compared to plasma: significant uptake of the compound in the liver and kidney
Plasma fraction unbound
  fraction unbound: 0.26
CYP3A4
  inhibition at 3 µM: 12%
[14]
  interaction/inhibition of CYP3A4: no significant interaction/inhibition
[15]
  IC50: > 50 µM
pKa
  pKa: 3.1
[16]
  IC50: > 50 µM
[17]
  IC50: > 30 µM
Dopamine receptor 2 (D2)
  inhibition at 100 µM: < 10%
[18]
  Kp uu at 1 h, 1 µM: 4.8 ± 0.5
Histamine receptor (H3)
  inhibition at 100 µM: < 10%
[19]
  inhibition at 100 µM: < 10%
[20]
  inhibition at 100 µM: < 10%
[21]
  inhibition at 10 µM: < 10%
[22]
  inhibition at 100 µM: < 10%
[23]
  inhibition at 100 µM: < 10%
[24]
  interaction/inhibition of CYP2C8: no significant interaction/inhibition
CYP2C8
  inhibition at 3 µM: < 10%
ATP-citrate lyase
  interaction/inhibition of ATP-citrate lyase: no significant interaction/inhibition
[25]
  inhibition at 100 µM: < 10%
